Where two headings read alike, the source gives them in different places.
How the values were obtained:
Assay type in all cases: cell-based, human
HCT116 cells [1] = assay: Antiproliferative activity, Alamar Blue assay, HCT116 cells; set-up: key to HCT116 antiproliferative activity pIC50: pIC50 = -log IC50 (IC50: conc. reducing growth to 50% of control); details: for IC50: Homo sapiens, HCT-116, HCT116 cells, read-out: HCT116 antiproliferative activity pIC50 (converted)
Summary of the method: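 Readout is resazurin fluorescence (ex 540, em 590 nm) after a 4 h dye incubation at 37 °C, following 4-day compound treatment of HCT116 cells plated 24 h earlier. Results expressed as % viable cells versus untreated; pIC50 derived from probit-fitted IC50.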

PC-3 cells = assay: Antiproliferative activity, Alamar Blue assay, PC-3 cells; details: for IC50: Homo sapiens, PC-3, PC3 cells, read-out: PC3 antiproliferative activity pIC50 (converted)
Summary of the method: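 Resazurin-based fluorescence (540 nm ex/590 nm em) measured after 4-day compound treatment plus 24 hrs dye incubation at 37° C. Cells plated at 4.5×10^3 cells/ml, adhered 24 hr first. pIC50 from probit-derived IC50 on % viable cells versus untreated, triplicate wells.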

HCT116 cells [2] = assay: Mitotic arrest assay on HCT116 cells (phospho-histone H3 Ser10); details: Homo sapiens, HCT-116, HCT116 cells; lowest active dose; read-out: Mitotic arrest HCT116 LAD (converted)
Summary of the method: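 Read-out is imaging of phospho-histone H3 Ser10 (Alexa Fluor 488) with Hoechst nuclear counting, after 6 h compound exposure at 37 °C, DMSO ≤0.1%. LAD is the lowest dose at which the blank-corrected value over SD exceeds 5; triplicates, low-count wells excluded.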

HCT116 antiproliferative activity pIC50 (HCT116 cells [1]; HCT116 cells)	PC3 antiproliferative activity pIC50 (PC-3 cells; PC3 cells)	IC50 (HCT116 cells [1]; Alamar Blue) [nM]	IC50 (PC-3 cells; Alamar Blue) [nM]	IC50 (HCT116 cells [1]) [nM]	IC50 (PC-3 cells) [nM]	SMILES	minimal effective concentration (HCT116 cells [2]) [µM]
7.0	6.8					CCc1cc2ccc(C(C)(C#N)Cc3nc(C#N)cc(OC)n3)cc2[nH]c1=O (single isomer, unassigned) [Compound 204]	
		1580	2000			CCc1cc2c(OC)cc(C(C)(C#N)Cc3nc(OC)cc(OC)n3)cc2[nH]c1=O (single isomer, unassigned) [Compound 230]	1
		398	398			CCc1cc2ccc([C@@](C)(C#N)CCOc3ccc(C#N)cc3)cc2[nH]c1=O (single isomer, unassigned) [Compound 273]	0.1
		10000	10000			CCc1cc2ccc([C@](C)(C#N)CCOc3ccc(C#N)cc3)cc2[nH]c1=O (single isomer, unassigned) [Compound 275]	10
		200	501			CCc1cc2ccc([C@](C)(C#N)Cc3cccc(/C=C/S(C)(=O)=O)c3)cc2[nH]c1=O (single isomer, unassigned) [Compound 291]	0.1
		10000	10000			CCc1cc2ccc([C@@](C)(C#N)Cc3cccc(C#CCO)c3)cc2[nH]c1=O (single isomer, unassigned) [Compound 295]	10
		126	100			CCc1cc2ccc([C@](C)(C#N)Cc3cccc(C#CCO)c3)cc2[nH]c1=O (single isomer, unassigned) [Compound 296]	0.1
		10000	10000			CCc1cc2ccc([C@@](C)(C#N)Cc3cc(OC)nc(C)n3)cc2[nH]c1=O (single isomer, unassigned) [Compound 361]	10
		1000	631			CCc1cc2ccc([C@](C)(C#N)Cc3cc(OC)nc(C)n3)cc2[nH]c1=O (single isomer, unassigned) [Compound 362]	0.3
		3980	10000			Cc1cc2ccc([C@@](C)(C#N)C3CCc4ccccc43)cc2[nH]c1=O (single isomer, unassigned) [Compound 385]	10
		200	200			Cc1cc2ccc([C@](C)(C#N)C3CCc4ccccc43)cc2[nH]c1=O (single isomer, unassigned) [Compound 386]	0.1
				3160	6310	CCc1cc2ccc(C(C)(C#N)Cc3cccc(OCCCN4CCNCC4)c3)cc2[nH]c1=O (centres unmarked) [Compound 25]	1
				2510	> 10000	CCc1cc2ccc(C(C#N)(Cc3ccccc3)c3ccc(C#N)cc3)cc2[nH]c1=O (centres unmarked) [Compound 26]	> 10
				3980	6310	CCc1cc2ccc(C(C#N)(Cc3ccccc3)c3ccccc3)cc2[nH]c1=O (centres unmarked) [Compound 27]	3.16
				1260	5010	CCc1cc2ccc(C(C#N)(Cc3ccccc3)C3CC3)cc2[nH]c1=O (centres unmarked) [Compound 29]	1
				1260	6310	CCc1cc2ccc(C(C#N)(Cc3ccccc3)C(C)C)cc2[nH]c1=O (centres unmarked) [Compound 30]	3.16
				3160	3160	CCCC(C#N)(Cc1ccccc1)c1ccc2cc(CC)c(=O)[nH]c2c1 (centres unmarked) [Compound 31]	1
				126	200	CCc1cc2ccc(C(C)(C#N)Cc3cc(OC)ccc3F)cc2[nH]c1=O (centres unmarked) [Compound 171]	
		5010	5010			CCc1cc2ccc(C(C)(C#N)Cc3cccc(-c4ccc[nH]4)c3)cc2[nH]c1=O (centres unmarked) [Compound 176]	1
		3980	10000			CCc1cc2ccc(C(C)(C#N)Cc3cccc(CCS(C)(=O)=O)c3)cc2[nH]c1=O (centres unmarked) [Compound 178]	3
		2000	7940			Cc1cc2ccc(C(C)(C#N)Cc3cccc(C=Cc4ccccc4)c3)cc2[nH]c1=O (centres unmarked) [Compound 179]	1
				200	251	CCc1cc2ccc(C(C)(C#N)Cc3cccc(/C=N/OC)c3)cc2[nH]c1=O (centres unmarked) [Compound 185]	
		3980	5010			CCc1cc2ccc(C(C)(C#N)Cc3cccc(C(=N)NO)c3)cc2[nH]c1=O (centres unmarked) [Compound 186]	3
		631	1580			Cc1cc2ccc(C(C)(C#N)Cc3cccc(Oc4ccc(F)cc4)c3)cc2[nH]c1=O (centres unmarked) [Compound 192]	0.3

HCT116 antiproliferative activity pIC50 (HCT116 cells [1]; HCT116 cells)	PC3 antiproliferative activity pIC50 (PC-3 cells; PC3 cells)	IC50 (HCT116 cells [1]; Alamar Blue) [nM]	IC50 (PC-3 cells; Alamar Blue) [nM]	IC50 (HCT116 cells [1]) [nM]	IC50 (PC-3 cells) [nM]	SMILES	minimal effective concentration (HCT116 cells [2]) [µM]
				501	631	CCc1cc2ccc(C(C)(C#N)Cc3cccc(OCCCC#N)c3)cc2[nH]c1=O (centres unmarked) [Compound 194]	
		251	251			CCc1cc2ccc(C(C)(C#N)Cc3cccc(OCCC#N)c3)cc2[nH]c1=O (centres unmarked) [Compound 195]	0.1
		631	1000			C#CCOc1cccc(CC(C)(C#N)c2ccc3cc(CC)c(=O)[nH]c3c2)c1 (centres unmarked) [Compound 196]	0.3
		2000	6310			CCc1cc2ccc(C(C)(C#N)COCc3ccccc3)cc2[nH]c1=O (centres unmarked) [Compound 197]	
				2510	5010	CCc1cc2ccc(C(C)(C#N)Cc3cccc(OCCS(C)(=O)=O)c3)cc2[nH]c1=O (centres unmarked) [Compound 201]	
		200	251			CCc1cc2ccc(C(C)(C#N)Cc3nc(Cl)cc(OC)n3)cc2[nH]c1=O (centres unmarked) [Compound 202]	0.1
		631	1260			CCc1cc2ccc(C(C)(C#N)Cc3nc(N(C)C)cc(N(C)C)n3)cc2[nH]c1=O (centres unmarked) [Compound 205]	0.3
		2000	5010			CCc1cc2ccc(C(C)(C#N)Cc3cccc(N4CCC(N(C)C)C4)n3)cc2[nH]c1=O (centres unmarked) [Compound 209]	1
		5010	6310			CCc1cc2ccc(C(C)(C#N)Cc3cccc(C#Cc4cncn4C)n3)cc2[nH]c1=O (centres unmarked) [Compound 217]	3
		2000	7940			CCc1cc2ccc(C(C)(C#N)Cc3cccc(N(C)CCc4ccccc4)n3)cc2[nH]c1=O.Cl (centres unmarked) [Compound 220]	3
				1580	3160	CCc1cc2ccc(C(C)(C#N)Cc3cccc(C#N)[n+]3[O-])cc2[nH]c1=O (centres unmarked) [Compound 228]	
		2510	5010			CCc1cc2c(OC)cc(C(C)(C#N)Cc3nc(OC)cc(OC)n3)cc2[nH]c1=O (centres unmarked) [Compound 229]	3
		1000	2000			CCc1cc2ccc(C(C)(C#N)CN3CCN(c4ccccn4)CC3)cc2[nH]c1=O (centres unmarked) [Compound 233]	1
		1580	1580			Cc1nc(-c2ccccc2)sc1CC(C)(C#N)c1ccc2cc(C)c(=O)[nH]c2c1 (centres unmarked) [Compound 235]	0.3
		2510	6310			CCc1cc2ccc(C(C)(C#N)Cc3cccc4c3CCN4)cc2[nH]c1=O (centres unmarked) [Compound 237]	1
		158	251			CCc1cc2ccc(C(C)(C#N)Cc3cccc(C(=O)OC(C)C)c3)cc2[nH]c1=O (centres unmarked) [Compound 255]	0.1
		398	1000			Cc1cc2ccc(C(C)(C#N)Cc3cccc(I)c3)cc2[nH]c1=O (centres unmarked) [Compound 256]	0.1
		631	1580			CCc1cc2ccc(C(C)(C#N)Cc3cccc(NC)c3)cc2[nH]c1=O (centres unmarked) [Compound 257]	0.3
		631	1000			CCc1cc2ccc(C(C)(C#N)Cc3cccc(/C=N/O)c3)cc2[nH]c1=O (centres unmarked) [Compound 299]	
				631	1000	CCc1cc2ccc(C(C)(C#N)Cc3cc(C#N)nc(OC)c3)cc2[nH]c1=O (centres unmarked) [Compound 314]	
				794	1260	CCc1cc2ccc(C(C)(C#N)Cc3cc(C#N)nc(N(C)C)c3)cc2[nH]c1=O (centres unmarked) [Compound 325]	
			3160			CCc1cc2ccc(C(C)(C#N)Cc3ccc4c(c3)OC(F)(F)O4)cc2[nH]c1=O (centres unmarked) [Compound 346]	1
				3160	3980	CCc1cc2ccc(C(C)(C#N)Cc3c4ccccc4nn3C)cc2[nH]c1=O (centres unmarked) [Compound 347]	
		794	1580			CCc1cc2ccc(C(C)(C#N)Cc3cc(OC)nc(OC)c3)cc2[nH]c1=O (centres unmarked) [Compound 350]	
